Assay type in all cases: cell-based
One assay relates to Candida glabrata. In words: in vitro antifungal activity (MIC80), Candida glabrata. The note with it: Nakaseomyces glabratus, 24 h, read-out: Antifungal Activity (MIC80) C. grabrata. The method, then: (§1) The compounds of the present invention were evaluated for inhibitory activity against yeast molds including Candida albicans, Candida glabrata, Candida krusei, Candida tropicalis, Candida parapsilosis, and Cryptococcus neoformans, and filamentous fungi including Aspergillus fumigatus, Trichophyton mentagrophytes (obtained from KCTC (Korean Collection for Type Cultures), and Trichophyton rubrum (obtained from KCCM (Korean Culture Center of Microorganisms). All the strains, but Trichophyton mentagrophytes and Trichophyton rubrum, were purchased from the ATCC (American Type Culture Collection).
(§2) Of the strains used in this test, Candida albicans, Candida glabrata, Candida krusei, Candida tropicalis, Candida parapsilosis, Trichophyton mentagrophytes and Trichophyton rubrum were inoculated into sabouraud dextrose agars (Difco, BD-0109), Cryptococcus neoformans into a yeast mold agar (YM agar, Difco, 271210), and Aspergillus fumigatus into a malt extract agar (Difco, 211220), before incubation at 35° C. for two to ten days.
(§3) From the agars on which the yeast molds were grown, single colonies were picked up, and each was sufficiently suspended in 5 mL of already prepared, 0.85% sterile saline. After correction of the absorbance to 0.108 at 530 nm, each of the suspensions was diluted to a ratio of 1:50 in an RPMI (Roswell park memorial institute) 1640 medium and then to a ratio of 1:20 to prepare an inoculum having a cell density of from 1.0×10^3 to 5.0×10^3CFU/mL. The cell density was adjusted into […]˜5.0×10^4 CFU/mL for Aspergillus fumigates and 0.4×10^4˜5.0×10^4 CFU/mL for both Trichophyton mentagrophytes and Trichophyton rubrum.
(§4) The antifungal agent samples were prepared by diluting the active compounds in an RPMI 1640 medium to a serial density of from 0.0156 to 32 μg/mL. In this context, dimethylsulfoxide (DMSO) was used as an excipient at a final concentration of 1% (v/v). The serial dilutions were aliquoted at a volume of 0.1 mL and applied to 0.1 mL of the aliquots of each inoculum, followed by incubation.
(§5) With the naked eyes, an observation was made of all of the yeast molds, but Cryptococcus neoformans 24 hrs after the application, Cryptococcus neoformans and Aspergillus fumigatus 48 hrs after the application, and Trichophyton mentagrophytes and Trichophyton rubrum five days after the application to examine whether the fungi grew or not. In addition, Alamarblue™ as used to determine the concentrations of the compounds of the present invention at which the growth of the microorganisms was 80% inhibited compared to that of the negative control. All experiments were performed in duplicate for each of the test concentration groups.

The next assay deals with Candida tropicalis. In words: in vitro antifungal activity (MIC80), Candida tropicalis. To be noted: 80% growth inhibition vs negative control, RPMI 1640, read 24 hrs after application, read-out: Antifungal Activity (MIC80) C. tropicalis. On the procedure:
as §1, §2, §3, §4, §5

A further assay concerns Cryptococcus neoformans. Kind of assay: in vitro antifungal activity (MIC80), Cryptococcus neoformans. To be noted: 80% growth inhibition vs negative control, RPMI 1640, read 48 hrs after application. The method, then:
as §1, §2, §3, §4, §5

A further assay has as its system Candida parapsilosis. In words: in vitro antifungal activity (MIC80), Candida parapsilosis. The note with it: Lodderomyces parapsilosis; 80% growth inhibition vs negative control; RPMI 1640; read 24 hrs after application; read-out: Antifungal Activity (MIC80) C. parapsilosis. The method, then: as §1, §2, §3, §4, §5
Another assay concerns Candida krusei. In words: in vitro antifungal activity (MIC80), Candida krusei. The note with it: Pichia kudriavzevii; 80% growth inhibition vs negative control; RPMI 1640; read 24 hrs after application; read-out: Antifungal Activity (MIC80) C. krusei. On the procedure: as §1, §2, §3, §4, §5
The next assay has as its system Aspergillus fumigatus. Kind of assay: in vitro antifungal activity (MIC80), Aspergillus fumigatus. To be noted: 80% growth inhibition vs negative control, RPMI 1640, read 48 hrs after application. The method, then:
as §1, §2, §3, §4, §5

In assay [1] the test system is Trichophyton mentagrophytes. Kind of assay: in vitro antifungal activity (MIC80), Trichophyton mentagrophytes. The note with it: 120 h, 80% growth inhibition vs negative control, RPMI 1640, read five days after application. The method, then:
as §1, §2, §3, §4, §5

A further assay relates to Candida albicans. In words: in vitro antifungal activity (MIC80), Candida albicans. To be noted: 80% growth inhibition vs negative control, RPMI 1640, read 24 hrs after application, Table 1, read-out: Antifungal Activity (MIC80) C. albicans. On the procedure: as §1, §2, §3, §4, §5
In the next assay the test system is Trichophyton rubrum. In words: in vitro antifungal activity (MIC80), Trichophyton rubrum. The note with it: 120 h, 80% growth inhibition vs negative control, RPMI 1640, read five days after application. The method, then: as §1, §2, §3, §4, §5

Values after ≈ are worked out from the molar mass of the structure shown.

Regarding `C[C@@H](N1CCC(Oc2ccc(F)cc2)CC1)[C@](O)(Cn1cncn1)c1ccc(F)cc1F` [Example 1, (2R,3R)-2-(2,4-difluorophenyl)-3-(4-(4-fluorophenoxy)piperidin-1-yl)-1-(1H-1,2,4-triazol-1-yl)butan-2-ol], the MIC80 in the assay on Candida glabrata was 0.25 µg/mL (≈ 0.56 µM); in the assay on Candida tropicalis, 0.062 µg/mL (≈ 0.139 µM); in the assay with Cryptococcus neoformans it was no more than 0.015 µg/mL; in the assay on Candida parapsilosis it was no more than 0.015 µg/mL; in the assay with Candida krusei, 0.062 µg/mL (≈ 0.139 µM); in the assay on Aspergillus fumigatus, no more than 0.125 µg/mL. For the same compound, the MIC80 was no more than 0.125 µg/mL in [1], no more than 0.015 µg/mL with Candida albicans and no more than 0.125 µg/mL with Trichophyton rubrum.

With `C[C@@H](N1CCC(Oc2ncccn2)CC1)[C@](O)(Cn1cncn1)c1ccc(F)cc1F` [Example 29, (2R,3R)-2-(2,4-difluorophenyl)-3-(4-(pyrimidin-2-yloxy)piperidin-1-yl)-1-(1H-1,2,4-triazol-1-yl)butan-2-ol], the MIC80 was 1 µg/mL (≈ 2.32 µM) in the assay on Candida glabrata; 0.25 µg/mL (≈ 0.581 µM) in the assay on Candida tropicalis; no more than 0.015 µg/mL in the assay on Cryptococcus neoformans; 0.062 µg/mL (≈ 0.144 µM) in the assay on Candida parapsilosis; 0.5 µg/mL (≈ 1.16 µM) with Candida krusei; 1 µg/mL (≈ 2.32 µM) against Aspergillus fumigatus. The MIC80 was 0.062 µg/mL (≈ 0.144 µM) in assay [1], no more than 0.015 µg/mL in the assay on Candida albicans and no more than 0.125 µg/mL in the assay with Trichophyton rubrum.

For the compound `C[C@@H](N1CCC(Oc2ncc(Br)cn2)CC1)[C@](O)(Cn1cncn1)c1ccc(F)cc1F` [Example 32, (2R,3R)-3-(4-((5-bromopyrimidin-2-yl)oxy)piperidin-1-yl)-2-(2,4-difluorophenyl)-1-(1H-1,2,4-triazol-1-yl)butan-2-ol], the MIC80 in the assay on Candida glabrata was 0.125 µg/mL (≈ 0.245 µM); with Candida tropicalis, no more than 0.015 µg/mL; with Cryptococcus neoformans, no more than 0.015 µg/mL; with Candida parapsilosis it was no more than 0.015 µg/mL; with Candida krusei it was 0.125 µg/mL (≈ 0.245 µM); with Aspergillus fumigatus, no more than 0.125 µg/mL. The MIC80 in assay [1] was no more than 0.125 µg/mL; in the assay with Candida albicans it was no more than 0.015 µg/mL; with Trichophyton rubrum, 0.031 µg/mL (≈ 0.0609 µM).

In the case of `C[C@@H](N1CCC(Nc2ccc(Cl)cc2)CC1)[C@](O)(Cn1cncn1)c1ccc(F)cc1F` [Example 34, (2R,3R)-3-(4-((4-chlorophenyl)amino)piperidin-1-yl)-2-(2,4-difluorophenyl)-1-(1H-1,2,4-triazol-1-yl)butan-2-ol], the MIC80 was 0.125 µg/mL (≈ 0.271 µM) in the assay with Candida glabrata; no more than 0.015 µg/mL in the assay on Candida tropicalis; no more than 0.015 µg/mL in the assay with Cryptococcus neoformans; no more than 0.015 µg/mL in the assay on Candida parapsilosis; 0.031 µg/mL (≈ 0.0671 µM) in the assay with Candida krusei; no more than 0.125 µg/mL against Aspergillus fumigatus. Moreover, the figures for the MIC80 (in assay [1]; in the assay with Candida albicans; against Trichophyton rubrum) were no more than 0.125 µg/mL, no more than 0.015 µg/mL and no more than 0.125 µg/mL, respectively.

Consider `C[C@@H](N1CCC(Nc2ccc(Cl)cn2)CC1)[C@](O)(Cn1cncn1)c1ccc(F)cc1F` [Example 59, (2R,3R)-3-(4-((5-chloropyridin-2-yl)-amino)piperidin-1-yl)-2-(2,4-difluorophenyl)-1-(1H-1,2,4-triazol-1-yl)butan-2-ol], for which the MIC80 in the assay on Candida glabrata is 0.25 µg/mL (≈ 0.54 µM); in the assay with Candida tropicalis, 0.125 µg/mL (≈ 0.27 µM); in the assay with Cryptococcus neoformans, no more than 0.015 µg/mL; in the assay with Candida parapsilosis, no more than 0.015 µg/mL; with Candida krusei, 0.062 µg/mL (≈ 0.134 µM); in the assay on Aspergillus fumigatus, 0.25 µg/mL (≈ 0.54 µM). The values for the MIC80 (in assay [1]; in the assay with Candida albicans; in the assay on Trichophyton rubrum) were no more than 0.125 µg/mL, no more than 0.015 µg/mL and no more than 0.125 µg/mL, respectively.

Consider `C[C@@H](NC1CCN(c2ccc(F)cc2)CC1)[C@](O)(Cn1cncn1)c1ccc(F)cc1F` [Example 125, (2R,3R)-2-(2,4-difluorophenyl)-3-((1-(4-fluorophenyl)piperidin-4-yl)amino)-1-(1H-1,2,4-triazol-1-yl)butan-2-ol], for which the MIC80 in the assay on Candida glabrata was 0.125 µg/mL (≈ 0.281 µM); with Candida tropicalis it was 0.031 µg/mL (≈ 0.0696 µM); in the assay with Cryptococcus neoformans, no more than 0.015 µg/mL; with Candida parapsilosis, no more than 0.015 µg/mL; with Candida krusei, 0.062 µg/mL (≈ 0.139 µM); in the assay on Aspergillus fumigatus it was 0.25 µg/mL (≈ 0.561 µM). The MIC80 in assay [1] is no more than 0.125 µg/mL; in the assay on Candida albicans, no more than 0.015 µg/mL; with Trichophyton rubrum, no more than 0.125 µg/mL.

As to `C[C@@H](NC1CCN(c2ccc(Cl)cc2)CC1)[C@](O)(Cn1cncn1)c1ccc(F)cc1F` [Example 128, (2R,3R)-3-((1-(4-chlorophenyl)piperidin-4-yl)amino)-2-(2,4-difluorophenyl)-1-(1H-1,2,4-triazol-1-yl)butan-2-ol], the MIC80 in the assay with Candida glabrata is 0.062 µg/mL (≈ 0.134 µM); in the assay on Candida tropicalis, 0.031 µg/mL (≈ 0.0671 µM); in the assay on Cryptococcus neoformans, no more than 0.015 µg/mL; in the assay on Candida parapsilosis it was 0.031 µg/mL (≈ 0.0671 µM); in the assay with Candida krusei, no more than 0.015 µg/mL; in the assay with Aspergillus fumigatus it was 0.25 µg/mL (≈ 0.541 µM). In addition, the MIC80 in assay [1] was 0.015 µg/mL (≈ 0.0325 µM); in the assay on Candida albicans, no more than 0.015 µg/mL; with Trichophyton rubrum, no more than 0.125 µg/mL.

Turning to `C[C@@H](NC1CCN(c2ncc(Br)cn2)CC1)[C@](O)(Cn1cncn1)c1ccc(F)cc1F` [Example 153, (2R,3R)-3-((1-(5-bromopyrimidin-2-yl)piperidin-4-yl)amino)-2-(2,4-difluorophenyl)-1-(1H-1,2,4-triazol-1-yl)butan-2-ol], the MIC80 with Candida glabrata was 0.125 µg/mL (≈ 0.246 µM); in the assay with Candida tropicalis, 0.25 µg/mL (≈ 0.492 µM); in the assay on Cryptococcus neoformans, no more than 0.015 µg/mL; in the assay with Candida parapsilosis, no more than 0.015 µg/mL; in the assay on Candida krusei it was 0.125 µg/mL (≈ 0.246 µM); in the assay on Aspergillus fumigatus, 1 µg/mL (≈ 1.97 µM). The MIC80 in [1] is 0.5 µg/mL (≈ 0.984 µM); in the assay with Candida albicans it was no more than 0.015 µg/mL; against Trichophyton rubrum, no more than 0.125 µg/mL.

For the compound `OC(Cn1cncn1)(Cn1cncn1)c1ccc(F)cc1F` [Fluconazole, reference compound], the MIC80 in the assay on Candida glabrata was greater than 32 µg/mL; with Candida tropicalis, greater than 32 µg/mL; in the assay on Cryptococcus neoformans, 0.5 µg/mL (≈ 1.63 µM); in the assay with Candida parapsilosis, greater than 32 µg/mL; with Candida krusei, 4 µg/mL (≈ 13.1 µM); against Aspergillus fumigatus, greater than 128 µg/mL. Also, the MIC80 in [1] is 16 µg/mL (≈ 52.2 µM); in the assay on Candida albicans, 4 µg/mL (≈ 13.1 µM); against Trichophyton rubrum it was 4 µg/mL (≈ 13.1 µM).

Consider `C[C@@H](c1ncncc1F)[C@](O)(Cn1cncn1)c1ccc(F)cc1F` [Voriconazole, reference compound], for which the MIC80 in the assay on Candida glabrata was 2 µg/mL (≈ 5.73 µM); with Candida tropicalis, 0.25 µg/mL (≈ 0.716 µM); in the assay with Cryptococcus neoformans, 0.25 µg/mL (≈ 0.716 µM); with Candida parapsilosis, 0.5 µg/mL (≈ 1.43 µM); with Candida krusei, 0.5 µg/mL (≈ 1.43 µM); against Aspergillus fumigatus, 0.25 µg/mL (≈ 0.716 µM). The MIC80 in assay [1] is 0.125 µg/mL (≈ 0.358 µM); in the assay with Candida albicans, 0.031 µg/mL (≈ 0.0887 µM); against Trichophyton rubrum, no more than 0.125 µg/mL.

(Values after patent publication US8940768B2, “Antifungal triazole derivatives” (Daewoong Pharmaceutical Co., Ltd., priority 2010, dated 2015).)
